Blank lines part the entries; values can stand above or below the compound they belong to. Activity calls are given as the source filed them. The calls are words filed in the database; no cut-off is given here.
How the values were obtained:
[1] = target: Sodium-dependent serotonin transporter (Homo sapiens, UniProt P31645); test: biochemical; type: cell-based, HEK293
[2] = target: T1, D(2) dopamine receptor (Homo sapiens, UniProt P14416); test: Displacement of [3H]spiperone from D2 receptor
[3] = target: T2, 5-hydroxytryptamine receptor 2B (Homo sapiens, UniProt P41595); test: Binding affinity to 5-HT2B receptor
T2 sequence (P41595 whole entry): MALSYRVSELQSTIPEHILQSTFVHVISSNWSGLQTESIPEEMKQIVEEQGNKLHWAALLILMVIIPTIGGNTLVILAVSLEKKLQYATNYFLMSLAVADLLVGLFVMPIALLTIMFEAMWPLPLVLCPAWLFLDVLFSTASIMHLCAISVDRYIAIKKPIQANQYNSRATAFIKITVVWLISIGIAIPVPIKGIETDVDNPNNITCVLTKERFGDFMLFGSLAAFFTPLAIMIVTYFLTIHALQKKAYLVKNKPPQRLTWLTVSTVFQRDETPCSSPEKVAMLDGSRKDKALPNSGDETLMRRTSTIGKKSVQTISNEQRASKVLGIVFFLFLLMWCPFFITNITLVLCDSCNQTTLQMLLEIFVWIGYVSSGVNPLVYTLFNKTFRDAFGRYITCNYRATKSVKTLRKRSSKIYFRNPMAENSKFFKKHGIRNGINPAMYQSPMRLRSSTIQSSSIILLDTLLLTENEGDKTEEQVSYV

[4] = target: 5-hydroxytryptamine receptor 2A (Homo sapiens, UniProt P28223); test: Agonist activity at 5-HT2A receptor; type: functional
Sequence of 5-hydroxytryptamine receptor 2A (P28223 whole entry): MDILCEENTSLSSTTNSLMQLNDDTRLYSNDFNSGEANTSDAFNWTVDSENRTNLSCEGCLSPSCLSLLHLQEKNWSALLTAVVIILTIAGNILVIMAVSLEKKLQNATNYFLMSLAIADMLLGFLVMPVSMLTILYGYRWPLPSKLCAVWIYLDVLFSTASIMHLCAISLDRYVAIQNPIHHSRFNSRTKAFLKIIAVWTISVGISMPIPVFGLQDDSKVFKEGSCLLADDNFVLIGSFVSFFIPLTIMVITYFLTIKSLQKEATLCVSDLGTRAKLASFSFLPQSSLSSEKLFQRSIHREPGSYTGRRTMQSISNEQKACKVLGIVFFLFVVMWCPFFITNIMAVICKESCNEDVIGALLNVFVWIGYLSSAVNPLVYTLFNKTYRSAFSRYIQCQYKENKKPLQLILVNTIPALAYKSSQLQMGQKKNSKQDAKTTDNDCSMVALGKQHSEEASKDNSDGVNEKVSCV

[5] = target: T3, Adrenergic receptor alpha-1 (Rattus norvegicus, UniProt P15823+P23944+P43140); test: Binding affinity to alpha1 adrenergic receptor in rat brain membrane by radioligand binding assay; type: cell membranes
T3 sequence (P15823 whole entry): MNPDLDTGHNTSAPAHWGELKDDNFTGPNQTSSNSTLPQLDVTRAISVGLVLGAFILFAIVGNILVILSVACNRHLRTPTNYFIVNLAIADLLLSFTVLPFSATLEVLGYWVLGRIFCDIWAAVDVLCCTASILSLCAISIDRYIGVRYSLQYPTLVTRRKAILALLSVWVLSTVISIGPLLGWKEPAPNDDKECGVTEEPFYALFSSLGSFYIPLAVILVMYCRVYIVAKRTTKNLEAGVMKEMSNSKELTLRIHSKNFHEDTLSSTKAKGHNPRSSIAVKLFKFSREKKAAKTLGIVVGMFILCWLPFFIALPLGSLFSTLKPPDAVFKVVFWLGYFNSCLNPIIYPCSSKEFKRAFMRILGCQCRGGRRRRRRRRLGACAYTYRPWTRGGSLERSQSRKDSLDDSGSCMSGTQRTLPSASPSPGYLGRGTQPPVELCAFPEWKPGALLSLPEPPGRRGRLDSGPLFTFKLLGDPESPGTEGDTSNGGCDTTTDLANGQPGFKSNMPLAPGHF
T3 sequence (P23944 whole entry): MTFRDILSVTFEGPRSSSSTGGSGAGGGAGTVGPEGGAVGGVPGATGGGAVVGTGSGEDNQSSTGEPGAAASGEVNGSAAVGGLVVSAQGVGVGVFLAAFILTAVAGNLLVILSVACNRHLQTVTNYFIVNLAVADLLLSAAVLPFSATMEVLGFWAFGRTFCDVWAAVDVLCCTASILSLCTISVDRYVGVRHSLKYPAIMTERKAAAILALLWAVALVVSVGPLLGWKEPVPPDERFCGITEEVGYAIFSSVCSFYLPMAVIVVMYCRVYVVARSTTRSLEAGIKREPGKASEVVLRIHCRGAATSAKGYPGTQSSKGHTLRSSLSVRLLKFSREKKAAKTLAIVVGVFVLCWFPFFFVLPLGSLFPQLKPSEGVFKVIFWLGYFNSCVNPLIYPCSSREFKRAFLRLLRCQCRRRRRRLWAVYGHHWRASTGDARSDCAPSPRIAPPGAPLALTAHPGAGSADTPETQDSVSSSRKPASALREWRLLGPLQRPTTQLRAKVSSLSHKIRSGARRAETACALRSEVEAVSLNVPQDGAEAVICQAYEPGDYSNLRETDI
T3 sequence (P43140 whole entry): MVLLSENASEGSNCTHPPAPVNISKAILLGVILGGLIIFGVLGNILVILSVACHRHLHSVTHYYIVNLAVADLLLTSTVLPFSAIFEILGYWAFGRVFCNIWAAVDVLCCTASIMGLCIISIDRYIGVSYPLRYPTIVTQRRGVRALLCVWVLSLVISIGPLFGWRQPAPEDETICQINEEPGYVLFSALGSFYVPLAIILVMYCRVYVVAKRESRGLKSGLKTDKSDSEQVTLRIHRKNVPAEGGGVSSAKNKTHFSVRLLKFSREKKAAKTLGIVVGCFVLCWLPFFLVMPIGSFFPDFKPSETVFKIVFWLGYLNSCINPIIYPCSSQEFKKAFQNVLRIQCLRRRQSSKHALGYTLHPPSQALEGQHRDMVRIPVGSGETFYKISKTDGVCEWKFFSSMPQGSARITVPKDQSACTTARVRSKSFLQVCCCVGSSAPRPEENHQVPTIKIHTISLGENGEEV

[6] = tested on: Mus musculus; test: Antipsychotic activity in ip dosed AIC mouse model assessed as climbing response; type: functional
[7] = tested on: Mus musculus; test: Antipsychotic activity in ip dosed AIC mouse model assessed as stereotype effects; type: functional
[8] = tested on: Mus musculus; test: Inhibition of catalepsy in mouse at 10 mg/kg, ip after 90 mins; type: functional
[9] = target: T1, D(2) dopamine receptor; test: Ratio of drug to quinpirole for agonist activity at D2 receptor assessed as change in intracellular cAMP level by cell based assay; type: functional
[10] = target: T2, 5-hydroxytryptamine receptor 2B; test: Agonist activity at human recombinant 5-HT2B receptor expressed in CHO-K1 cells assessed as increase in intracellular calcium level by FLIPR assay; type: functional, cell-based
[11] = Selectivity of Ki for human serotonin transporter to Ki for rat alpha1 adrenergic receptor
[12] = tested on: Rattus norvegicus; test: Behavioral effect in CAR rat model assessed as reduction of avoidance response at 10 mg/kg, ip; type: functional, organism-based; design: dose 10 mg/kg
[13] = tested on: Rattus norvegicus; test: Behavioral effect in CAR rat model assessed as reduction of avoidance response at 10 mg/kg, po; type: functional, organism-based; design: dose 10 mg/kg
[14] = tested on: Rattus norvegicus; test: Behavioral effect in CAR rat model assessed as increase in escape response at 10 mg/kg, ip; type: functional, organism-based; design: dose 10 mg/kg
[15] = tested on: Rattus norvegicus; test: Behavioral effect in CAR rat model assessed as increase in escape response at 10 mg/kg, po; type: functional, organism-based; design: dose 10 mg/kg

T1 sequence (P14416 whole entry): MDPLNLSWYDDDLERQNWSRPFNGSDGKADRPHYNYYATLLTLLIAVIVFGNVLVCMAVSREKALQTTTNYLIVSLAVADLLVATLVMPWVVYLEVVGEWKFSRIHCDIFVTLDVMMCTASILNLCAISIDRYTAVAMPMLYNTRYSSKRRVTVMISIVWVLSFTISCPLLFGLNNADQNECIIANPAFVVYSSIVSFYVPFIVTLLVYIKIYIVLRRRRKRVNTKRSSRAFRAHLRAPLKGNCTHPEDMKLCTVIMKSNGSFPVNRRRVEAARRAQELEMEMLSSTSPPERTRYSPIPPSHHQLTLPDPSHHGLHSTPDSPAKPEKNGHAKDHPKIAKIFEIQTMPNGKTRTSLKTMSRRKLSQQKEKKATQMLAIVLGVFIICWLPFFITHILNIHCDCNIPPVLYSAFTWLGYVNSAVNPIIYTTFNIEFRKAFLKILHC
Sequence of Sodium-dependent serotonin transporter (P31645 whole entry): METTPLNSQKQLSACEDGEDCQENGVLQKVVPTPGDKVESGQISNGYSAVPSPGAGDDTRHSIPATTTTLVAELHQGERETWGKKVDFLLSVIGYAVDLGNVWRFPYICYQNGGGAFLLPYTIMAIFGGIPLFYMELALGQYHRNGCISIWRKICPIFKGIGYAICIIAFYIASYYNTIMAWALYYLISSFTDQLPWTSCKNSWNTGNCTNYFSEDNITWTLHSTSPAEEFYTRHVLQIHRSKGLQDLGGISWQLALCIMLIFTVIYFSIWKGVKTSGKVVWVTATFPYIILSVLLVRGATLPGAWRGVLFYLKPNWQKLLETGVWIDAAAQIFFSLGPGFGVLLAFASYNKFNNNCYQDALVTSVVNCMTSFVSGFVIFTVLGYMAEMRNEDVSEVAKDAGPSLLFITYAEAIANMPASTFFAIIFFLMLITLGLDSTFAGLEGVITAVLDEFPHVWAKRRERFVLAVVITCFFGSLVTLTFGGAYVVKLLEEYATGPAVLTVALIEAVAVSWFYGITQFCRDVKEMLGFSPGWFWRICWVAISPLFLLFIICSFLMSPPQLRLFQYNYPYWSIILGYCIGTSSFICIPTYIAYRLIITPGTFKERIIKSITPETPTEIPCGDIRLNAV

- Ratio [9]: 0.3
- Activity [10]: inactive
- Ratio Ki [11]: 10
SMILES: O=C1Cc2c(ccc3c2OC[C@H](CNCCCC2CCc4c([nH]c5ccc(F)cc45)C2)O3)N1 (stereo in doubt; 23) [listing 1 of 2 here]

- Ratio [9]: 0.3
- Activity [10]: inactive
- Ratio Ki [11]: 10
SMILES: O=C1Cc2c(ccc3c2OC[C@H](CNCC2CCc4[nH]c5ccc(F)cc5c4C2)O3)N1 (single isomer, unassigned) [listing 2 of 2 here]

- Ki [1]: 1 nM
- Ki [2]: 3 nM
- Ki [3]: 6 nM
- Ki [4]: 2 nM
- Ki [5]: 0.72 nM
SMILES: O=C1Cc2c(ccc3c2OC[C@H](CNCC2CCc4[nH]c5ccc(F)cc5c4C2)O3)N1 (stereo in doubt; 25) [listing 1 of 2 here]

- Ratio [9]: 0.3
- Activity [10]: inactive
- Ratio Ki [11]: 10
SMILES: O=C1Cc2c(ccc3c2OC[C@H](CNCCCC2CCc4c([nH]c5ccc(F)cc45)C2)O3)N1 (stereo in doubt; 22) [listing 1 of 2 here]

- Ki [1]: 21 nM
- Ki [2]: 24 nM
SMILES: O=C1Cc2c(ccc3c2OC[C@H](CNCCC2CCc4[nH]c5ccc(F)cc5c4C2)O3)N1 (stereo not given in full) [listing 1 of 2 here]

- Ki [1]: 24 nM
- Ki [2]: 24 nM
SMILES: O=C1Cc2c(ccc3c2OC[C@H](CNCCC2CCc4[nH]c5ccc(F)cc5c4C2)O3)N1 (stereo not given in full) [listing 2 of 2 here]

- Ki [1]: 5200 nM
- Ki [2]: 36 nM
SMILES: O=C1Cc2c(ccc3c2OC[C@H](CNCCC2CCc4c([nH]c5ccc(F)cc45)C2)O3)N1 (stereo not given in full)

- Ratio [9]: 0.4
- Activity [10]: inactive
- Ratio Ki [11]: 10
SMILES: O=C1Cc2c(ccc3c2OC[C@H](CNCC2CCc4[nH]c5ccc(F)cc5c4C2)O3)N1 (stereo in doubt; 25) [listing 2 of 2 here]

- Ki [1]: 15 nM
- Ki [2]: 50 nM
- Ki [3]: 610 nM
- Ki [4]: 6 nM
- Ki [5]: 54 nM
SMILES: O=C1Cc2c(ccc3c2OC[C@H](CNCCCC2CCc4c([nH]c5ccc(F)cc45)C2)O3)N1 (stereo in doubt; 22) [listing 2 of 2 here]

- Ki [1]: 4 nM
- Ki [2]: 45 nM
- Ki [3]: 400 nM
- Ki [5]: 22 nM
SMILES: O=C1Cc2c(ccc3c2OC[C@H](CNCCCC2CCc4c([nH]c5ccc(F)cc45)C2)O3)N1 (stereo in doubt; 23) [listing 2 of 2 here]

- Ki [1]: 25 nM
- Ki [2]: 100 nM
SMILES: O=C1Cc2c(ccc3c2OC[C@H](CNCC2CCc4c([nH]c5ccc(F)cc45)C2)O3)N1 (stereo not given in full)

Further lines, the compound ahead of its results:

SMILES: O=c1[nH]c2cccc(N3C[C@H]4C[C@@H]3CN4CC3CCc4[nH]c5ccc(F)cc5c4C3)c2o1 (stereo not given in full) [listing 1 of 3 here]
- Ki [1]: 460 nM
- Ki [2]: 12 nM

SMILES: O=c1[nH]c2cccc(N3C[C@H]4C[C@@H]3CN4CC3CCc4[nH]c5ccc(F)cc5c4C3)c2o1 (stereo not given in full) [listing 2 of 3 here]
- Ki [1]: 8 nM
- Ki [2]: 14 nM
- Ki [3]: 165 nM
- Ki [4]: 1800 nM
- Ki [5]: 65 nM
- ED50 [6]: 2.3 mg/kg
- ED50 [7]: > 5 mg/kg
- inhibition in vivo at 10 mg/kg ([8]; 1.5 h, route intraperitoneal): 48%

SMILES: O=c1[nH]c2cccc(N3CCN(CC4CCc5[nH]c6ccc(F)cc6c5C4)CC3)c2o1 (single isomer, unassigned; 30)
- Ki [1]: 32 nM
- Ki [2]: 60 nM

SMILES: O=c1[nH]c2cccc(N3CCN(CCCC4CCc5c([nH]c6ccc(F)cc56)C4)CC3)c2o1 (stereo not given)
- Ki [1]: 62 nM
- Ki [2]: 50 nM

SMILES: O=C1Cc2c(ccc3c2OC[C@H](CNCC2CCc4[nH]c5ccc(F)cc5c4C2)O3)N1 (single isomer, unassigned) [listing 1 of 2 here]
- Ki [1]: 7 nM
- Ki [2]: 3 nM
- Ki [3]: 130 nM
- Ki [4]: 2 nM
- Ki [5]: 0.5 nM

SMILES: O=C1Cc2c(cccc2N2CCN(CC3CCc4[nH]c5ccc(F)cc5c4C3)CC2)N1 (stereo not given)
- Ki [1]: 1140 nM
- Ki [2]: 15 nM

SMILES: O=c1[nH]c2cccc(N3C[C@H]4C[C@@H]3CN4CC3CCc4[nH]c5ccc(F)cc5c4C3)c2o1 (stereo not given in full) [listing 3 of 3 here]
- Ratio [9]: 0.3
- Activity [10]: inactive
- Ratio Ki [11]: 10

SMILES: O=c1[nH]c2cccc(OCC3CCN(CC4CCc5[nH]c6ccc(F)cc6c5C4)CC3)c2o1 (stereo not given)
- Ki [1]: 0.4 nM
- Ki [2]: 28 nM
- Ratio [9]: < 0.1
- Ki [3]: 110 nM
- Activity [10]: inactive
- Ki [5]: 130 nM

SMILES: O=c1[nH]c2cccc(N3CCN(CC4CCc5[nH]c6ccc(F)cc6c5C4)CC3)c2o1 (single isomer, unassigned; 31) [listing 1 of 2 here]
- Ki [1]: 22 nM
- Ki [2]: 17 nM
- Ki [3]: 680 nM
- Ki [4]: 130 nM
- Ki [5]: 220 nM
- ED50 [6]: 0.5 mg/kg
- ED50 [7]: > 1 mg/kg

SMILES: O=c1[nH]c2cccc(OCC3CCN(CCC4CCc5[nH]c6ccc(F)cc6c5C4)CC3)c2o1 (stereo not given)
- Ki [1]: 10 nM
- Ki [2]: 720 nM

SMILES: O=c1[nH]c2cccc(OC3CCN(CCC4CCc5[nH]c6ccc(F)cc6c5C4)CC3)c2o1 (stereo not given)
- Ki [1]: 1200 nM
- Ki [2]: 310 nM

SMILES: O=c1[nH]c2cccc(CN3CCN(CC4CCc5[nH]c6ccc(F)cc6c5C4)CC3)c2o1 (stereo not given)
- Ki [1]: 41 nM
- Ki [2]: 120 nM

SMILES: O=C1Cc2c(cccc2N2CCN(CCC3CCc4[nH]c5ccc(F)cc5c4C3)CC2)N1 (stereo not given)
- Ki [1]: 4700 nM
- Ki [2]: 15 nM

SMILES: O=c1[nH]c2cccc(OC3CCN(CC4CCc5[nH]c6ccc(F)cc6c5C4)CC3)c2o1 (stereo not given)
- Ki [1]: 3 nM
- Ki [2]: 140 nM

SMILES: O=c1[nH]c2cccc(N3CCN(CC4CCc5c([nH]c6ccc(F)cc56)C4)CC3)c2o1 (stereo not given)
- Ki [1]: 62 nM
- Ki [2]: 220 nM

SMILES: O=c1[nH]c2cccc(N3CCN(CC4CCc5[nH]c6ccc(F)cc6c5C4)CC3)c2o1 (single isomer, unassigned; 31) [listing 2 of 2 here]
- Ratio [9]: 0.6
- Activity [10]: inactive
- Activity [8]: inactive
- Activity [12]: Active
- Activity [13]: Active
- Activity [14]: Active
- Activity [15]: Active

Reference: ChEMBL document CHEMBL1156031, “Tetrahydrocarbazole-based serotonin reuptake inhibitor/dopamine D2 partial agonists for the potential treatment of schizophrenia” (Bioorg Med Chem Lett, 2009)
